pEC50, pKi: −log10 of the molar value.

Usually pEC50 stands for the negative decadic logarithm of the EC50, by convention in mol/L. In general, pKi refers to the negative decadic logarithm of the Ki, by convention in mol/L.

The first data set has as its system CFTR.
Experiment: not given
Conditions: CFTR potentiator; cited from earlier work.
Regarding `O=c1cc(-c2ccncc2)oc2c1ccc1ccccc12` [P8, 4-(4-Oxo-4H-benzo[h]chromen-2-yl)-pyridinium; bisulfate], the “Potency: Ks” value is “Reference #** 9 and 10 Potency: Ks = 2 microM Solvent: DMSO Hints For Use: M.W.: 371.4”.

For `ClCc1cc(-c2ccccc2OCc2ccccc2)no1` [P10, 3-(2-Benzyloxy-phenyl)-5-chloromethyl-isoxazole], the “Potency: Ks” value was “Reference #** 10 Potency: Ks >50 microM Solvent: DMSO Hints For Use: M.W.: 299.8”.

Consider `CC(C)c1ccc(NC(=O)C(c2ccccc2)N(C)C(=O)Cc2c[nH]c3ccccc23)cc1` (centres unmarked) [P2, 2-[(2-1H-lndol-3-yl-acetyl)-methyl-amino]-N-(4-isopropyl-phenyl)-2-phenyl-acetamide], for which the “Potency: Ks” value is listed as “Reference #** 4 Name: PG-01 Potency:Ks = 300 nM Solvent: DMSO Hints For Use: M.W.: 439.5”.

Turning to `CCN(c1ccccc1)S(=O)(=O)c1ccc2[nH]cc(C(=O)NCc3ccccc3OC)c(=O)c2c1` [P3, 6-(Ethyl-phenyl-sulfonyl)-4-oxo-1,4-dihydro-quinoline-3-carboxylic acid 2-methoxy-benzylamide], the “Potency: Ks” value was “Reference #** 4 Name: SF-03 Potency: Ks = 30 nM Solvent: DMSO Hints For Use: M.W.: 491.6”.

With `O=c1[nH]c2cc(C(F)(F)F)ccc2n1-c1cccc(Cl)c1` [P4, 1-(3-chlorophenyl)-5-trifluoromethyl-3-hydrobenzi-midazol-2-one], the “Potency: Ks” value is “Reference #** 5 Name: UCCF-853 Potency: Ks = 3 microM Solvent: DMSO Hints For Use: M.W.: 312.7”.

As for `C#CCCc1nn(-c2ccccc2)c(OC)c1C=O` [P9, 3-But-3-ynyl-5-methoxy-1-phenyl-1H-pyrazole-4-carbaldehyde], the “Potency: Ks” value is reported as “Reference #** 10 Potency: Ks = 10 microM Solvent: DMSO Hints For Use: M.W.: 254.3”.

Consider `O=C1c2c(O)cc(O)cc2OCC1c1ccc(O)cc1` (centres unmarked) [P6, 5,7,Dihydroxy-3-(4-hydroxy-phenyl)-chroman-4-one], for which the “Potency: Ks” value is reported as “Reference #** 8 Name: Genistein (discontinued— available from Sigma #G6649) Potency: Ks = 10 to 30 microM Solvent: DMSO”.

With `NC(=O)c1c(NC(=O)c2ccccc2Cl)sc2c1CCCC2` [P5, 2-(2-Chloro-benzoylamino)-4,5,6,7-tetrahydro-benzo[b] thiophene-3-carboxylic acid amide], the “Potency: Ks” value was “Reference #** 6 Name: dF508act-02 Potency: Ks = 70 nM Solvent: DMSO Hints For Use: M.W.: 334.8”.

Turning to `Cc1ccc(O)c(-c2cc(-c3ccccc3)[nH]n2)c1` [P1, 4-Methyl-2-(5-phenyl-1H-pyrazol-3-yl)-phenol], the “Potency: Ks” value is reported as “Reference #**12 & 15 Name: VRT-532 Potency: Ks 3 to 5 microM Solvent: DMSO Hints For Use: M.W.: 250”.

The data set is the same for the next values; noted with them: CFTR potentiator; read-out: Potency: EC50; cited from earlier work.
On to `O=C1Cc2cc(C(F)(F)F)ccc2N1c1cc(Cl)ccc1O` [P7, 1-(5-Chloro-2-hydroxy-phenyl)-5-trifluoromethyl-1,3-dihydro-indol-2-one], for which the negative logarithm of the EC50 (pEC50) was 5.52.

The same data set, now with this note: excised patches; cited from earlier work.
Take `O=C1Cc2cc(C(F)(F)F)ccc2N1c1cc(Cl)ccc1O` [P7, 1-(5-Chloro-2-hydroxy-phenyl)-5-trifluoromethyl-1,3-dihydro-indol-2-one]: the “Activity in excised patches” value was “Does not work in excised patches”.

In a further data set the test system is CFTR.
Experiment: not given
Conditions: CFTR corrector; cited from earlier work.
Turning to `COc1ccc2nc(Nc3nc(O)cc(CSc4nc5ccccc5[nH]4)n3)nc(C)c2c1` [C1, 6-(1H-Benzoimidazol-2-ylsulfanyl-methyl)-2-(6-methoxy-4-methyl-quinazolin-2-ylamino)-pyrimidin-4-ol], the “Potency: Ks” value is “Reference #** 11 Potency: Ks = 3 microM Solvent: DMSO Hints For Use: M.W.: 445.5”.

With `O=C(Nc1ncc(C(c2ccccc2Cl)N2CCC(O)C2)s1)C1(c2ccc3c(c2)OCO3)CC1` (centres unmarked) [C18, 1-(benzo[d][1,3]di-oxol-5-yl)-N-(5-((2-chlorophenyl)(3-hydroxy-pyrrolidin-1-yl)methyl)thiazol-2-yl)cyclopropane carboxamide], the “Potency: Ks” value is “Reference # 24 Name: CF-106951 Potency Ks ~0.6 microM Solvent: DMSO Hints for use: Use at 3 to 6 microM for maximum effect. M.W. 497.99”.

Staying with this data set, now noted: CFTR corrector; read-out: Potency: EC50; cited from earlier work.
With `Cc1ccc(-c2csc(Nc3ccc(F)cc3)n2)cc1` [C12, N-(4-fluorophenyl)-4-p-tolylthiazol-2-amine], the pEC50 is 5.30.

Regarding `Cc1cc(C)c2c(C)cc(Nc3ccccc3)nc2c1` [C5, 4,5,7-trimethyl N-phenylquinolin-2-amine], the negative logarithm of the EC50 (pEC50) was 4.89.

With `O=C(N/N=C\c1ccc(O)c(O)c1)c1cc2ccccc2cc1O` [C11, (Z)-N′-(3,4-dihydroxyben-zylidene)-3-hydroxy-2-naphtho-hydrazide], the pEC50 is 4.70 to 5.00.

Turning to `O=S(=O)(c1ccc(Cl)cc1)N1CCN(c2ccnc3cc(Cl)ccc23)CC1` [C9, 7-chloro-4-(4-(4-chlorophenylsul-fonyl)piperazin-1-yl)quinoline], the negative logarithm of the EC50 (pEC50) is over 6.00.

With `C=Cc1ccc(-c2csc(Nc3ccccc3)n2)cc1` [C15, N-phenyl-4-(4-vinylphenyl) thiazol-2-amine], the negative-log EC50 (pEC50) was 4.80.

`COc1ccccc1Nc1ncc(-c2sc(NC(=O)c3ccccc3)nc2C)s1` [C14, N-(2′-(2-methoxyphenylamino)-4-methyl-5,5′-bithiazol-2-yl)benzamide]: the negative logarithm of the EC50 (pEC50) is 5.15.

Take `Cc1cc(Nc2ccc(Br)cc2)nc2ccccc12` [C6, N-(4-bromophenyl)-4-methylquinolin-2-amine]: the pEC50 is 5.10.

Take `CC(=O)c1cccc(Nc2nc(-c3sc(NC(=O)c4ccccc4)nc3C)cs2)c1` [C13, N-(2-(3-acetylphenyl-amino)-4′-methyl-4,5′-bithiazol-2′-yl)benzamide]: the pEC50 is 5.70.

As for `COc1ccc(Cl)cc1Nc1nc(-c2sc(NC(=O)c3ccccc3)nc2C)cs1` [C4, N-[2-(5-Chloro-2-methoxy-phenylamino)-4′-methyl-[4,5′]bithiazolyl-2′-yl]-benzamide], the negative logarithm of the EC50 (pEC50) was 5.70.

Regarding `COc1ccc(S(=O)(=O)N2CCN(C(C)c3nc(OC4CCCCC4)c4ccccc4n3)CC2)cc1` (centres unmarked) [C3, Cyclohexyloxy-2-{1-[4-(4-methoxy-benzensulfonyl)-piperazin-1-yl]-ethyl}-quinazoline], the pEC50 was 5.70.

On to `COc1ccc(Cl)cc1Nc1nc(-c2sc(NC(=O)C(C)(C)C)nc2C)cs1` [C17, N-(2-(5-chloro-2-methoxyphenylamino)-4′-methyl-4,5′-bithiazol-2′-yl)pivalamide], for which the pEC50 is 5.70 to 6.00.

As to `COc1ccc2nc(Nc3nc(=O)c(C)c(C)[nH]3)nc(C)c2c1` [C16, 2-(6-methoxy-4-methylquina-zolin-2-ylamino)-5,6-dimethylpyrimi-din-4(1H)-one], the pEC50 is 4.82.

Turning to `O=S(=O)(c1ccccc1)N1CCN(c2ccnc3cc(Cl)ccc23)CC1` [C10, 7-chloro-4-(4-(phenylsulfonyl)piperazin-1-yl)quinoline], the pEC50 was under 4.00.

The next data set has as its target T1, CFTR (Homo sapiens, UniProt P13569).
Experiment: not given
To be noted: CFTR blocker; read-out: Potency: Ki; cited from earlier work.
Target sequence in this assay (P13569 whole entry): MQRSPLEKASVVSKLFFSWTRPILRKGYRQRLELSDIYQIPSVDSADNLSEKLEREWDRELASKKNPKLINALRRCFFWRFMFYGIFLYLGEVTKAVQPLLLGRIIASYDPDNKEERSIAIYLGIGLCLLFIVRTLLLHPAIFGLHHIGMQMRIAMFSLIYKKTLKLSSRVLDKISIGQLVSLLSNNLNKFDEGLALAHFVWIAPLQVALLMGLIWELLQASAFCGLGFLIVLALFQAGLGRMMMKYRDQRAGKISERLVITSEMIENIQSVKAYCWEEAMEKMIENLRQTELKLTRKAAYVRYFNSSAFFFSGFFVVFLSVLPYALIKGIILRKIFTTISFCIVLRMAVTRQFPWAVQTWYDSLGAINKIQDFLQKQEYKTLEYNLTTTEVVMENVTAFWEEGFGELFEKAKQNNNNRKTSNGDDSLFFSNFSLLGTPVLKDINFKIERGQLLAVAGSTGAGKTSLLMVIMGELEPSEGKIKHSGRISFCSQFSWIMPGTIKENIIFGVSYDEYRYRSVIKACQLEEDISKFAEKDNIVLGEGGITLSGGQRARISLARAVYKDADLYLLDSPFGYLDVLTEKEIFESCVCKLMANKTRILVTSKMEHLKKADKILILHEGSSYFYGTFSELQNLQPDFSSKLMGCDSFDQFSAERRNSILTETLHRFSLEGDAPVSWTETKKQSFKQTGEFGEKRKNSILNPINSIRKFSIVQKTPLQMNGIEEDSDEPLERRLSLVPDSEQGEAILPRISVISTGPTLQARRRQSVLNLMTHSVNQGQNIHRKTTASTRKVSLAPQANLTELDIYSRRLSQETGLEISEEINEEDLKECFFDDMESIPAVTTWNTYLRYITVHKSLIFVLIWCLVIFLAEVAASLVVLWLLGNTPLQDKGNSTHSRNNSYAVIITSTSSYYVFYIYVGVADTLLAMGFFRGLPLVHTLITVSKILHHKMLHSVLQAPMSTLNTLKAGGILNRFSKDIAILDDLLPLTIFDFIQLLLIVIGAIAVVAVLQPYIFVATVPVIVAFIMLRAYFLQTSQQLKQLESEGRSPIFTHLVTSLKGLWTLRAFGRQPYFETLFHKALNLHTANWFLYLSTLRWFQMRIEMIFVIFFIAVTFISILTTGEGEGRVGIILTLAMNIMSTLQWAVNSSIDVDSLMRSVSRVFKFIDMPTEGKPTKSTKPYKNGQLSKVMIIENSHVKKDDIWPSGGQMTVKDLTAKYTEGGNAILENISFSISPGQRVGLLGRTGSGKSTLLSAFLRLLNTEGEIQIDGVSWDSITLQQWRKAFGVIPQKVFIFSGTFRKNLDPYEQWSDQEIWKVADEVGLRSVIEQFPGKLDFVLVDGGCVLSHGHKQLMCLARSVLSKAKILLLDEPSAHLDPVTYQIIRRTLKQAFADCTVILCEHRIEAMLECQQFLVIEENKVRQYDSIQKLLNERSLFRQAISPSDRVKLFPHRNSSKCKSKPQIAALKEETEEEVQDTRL
Consider `Cc1ccc(S(=O)(=O)NC(=O)Nc2ccc([N+](=O)[O-])cc2)cc1` [B3, Diarylsulfonyl- urea], for which the pKi is under 4.00.

With `O=C1/C(=C/c2ccc(-c3nn[nH]n3)cc2)SC(=S)N1c1cccc(C(F)(F)F)c1` [B7, 5-[[4-(2h-tetrazol-5-yl)phenyl]methylene]-2-thioxo-3-[3-(trifluoromethyl)phenyl]-4-thiazolidinone], the pKi is about 6.00.

In the case of `O=C(O)c1ccc(/C=C2\SC(=O)N(c3cccc(C(F)(F)F)c3)C2=O)cc1` [B8, 4-[[3-[3-(trifluoromethyl)phenyl]-2,4-dioxo-5-thiazolidinyli-dene]methyl]benzoic acid], the pKi is about 6.00.

Take `Cc1ccc(C2Nc3ccccc3-n3c(-c4ccccc4)c4c(=O)n(C)c(=O)n(C)c4c32)o1` (centres unmarked) [B6, 7,9-dimethyl-11-phenyl-6-(5-methylfuran-2-yl)-5,6-dihydro-pyrimido-[4′,5′-3,4]pyrrolo[1,2-a]quinoxaline-8,10-(7H,9H)-dione]: the negative-log Ki (pKi) is 7.05.

Take `O=C(O)c1ccc(/C=C2/SC(=S)N(c3cccc(C(F)(F)F)c3)C2=O)cc1` [B1, 4-[4-Oxo-2-thioxo-3-(3-trifluoromethyl-phenyl)-thiazolidin-5-ylidenemethyl]-benzoic acid]: the pKi is 6.52.

The data set is the same for the next values; noted with them: some cell types (eg. T84 cells), requiring prolonged incubation; cited from earlier work.
For `O=C(O)c1ccc(/C=C2/SC(=S)N(c3cccc(C(F)(F)F)c3)C2=O)cc1` [B1, 4-[4-Oxo-2-thioxo-3-(3-trifluoromethyl-phenyl)-thiazolidin-5-ylidenemethyl]-benzoic acid], the Onset of inhibition entry is recorded as “Slow onset of inhibition”.

In the next data set the target is T1, CFTR.
Experiment: not given
The class given is cell-based.
Conditions: not given
Target sequence in this assay (P13569 whole entry, looked up): as the sequence (P13569 whole entry) above
Regarding cholera toxin, the “Increase in organoid size” value is on record as “more than double in size”, the “Organoid swelling induced by stimulus” value was “induce swelling” and the “Time course of swelling response” value is “delayed compared to forskolin”.

The same data set, now with this note: Example 2; human healthy control organoids; 3 hours pre-incubation, 50 μM.
On to `O=C(CNc1ccc2ccccc2c1)N/N=C/c1cc(Br)c(O)c(Br)c1O` [B2, (Naphthalen-2-ylamino)-acetic acid (3,5-dibromo-2,4,- dihydroxy-benzylidene)-hydrazide], for which the “Effect of CFTR inhibitors on forskolin-stimulated swelling” value is recorded as “reduced”.

Consider `O=C(O)c1ccc(/C=C2/SC(=S)N(c3cccc(C(F)(F)F)c3)C2=O)cc1` [B1, 4-[4-Oxo-2-thioxo-3-(3-trifluoromethyl-phenyl)-thiazolidin-5-ylidenemethyl]-benzoic acid], for which the “Effect of CFTR inhibitors on forskolin-stimulated swelling” value is recorded as “reduced”.

The subject of another data set is CFTR. As to the kind of experiment: Organoid swelling on compound addition (organoid origin not stated; FIG. 7, FIG. 32).
Conditions: not given
The class given is cell-based.
Turning to `CNC[C@H](O)c1ccc(O)c(O)c1` [epinephrine], the “Organoid swelling on compound addition” value is recorded as “forskolin-like swelling”.

Consider `CC(NCCc1ccc(O)cc1)C(O)c1ccc(O)cc1` (centres unmarked) [ritodrine], for which the “Organoid swelling on compound addition” value is recorded as “forskolin-like swelling”.

On to `O=C1c2c(O)cc(O)cc2OCC1c1ccc(O)cc1` (centres unmarked) [P6, 5,7,Dihydroxy-3-(4-hydroxy-phenyl)-chroman-4-one], for which the “Organoid swelling on compound addition” value was “rapid organoid swelling”.

With `CC(C)(C)NCC(O)c1ccc(O)c(CO)c1` (centres unmarked) [salbutamol], the “Organoid swelling on compound addition” value is “forskolin-like swelling”.

With `NCCc1ccc(O)c(O)c1` [dopamine], the “Organoid swelling on compound addition” value is given as “forskolin-like swelling”.

Test system in a further data set: not given
Experiment: not given
Conditions: cited from earlier work.
Regarding `O=C1/C(=C/c2ccc(-c3nn[nH]n3)cc2)SC(=S)N1c1cccc(C(F)(F)F)c1` [B7, 5-[[4-(2h-tetrazol-5-yl)phenyl]methylene]-2-thioxo-3-[3-(trifluoromethyl)phenyl]-4-thiazolidinone], the “Water solubility relative to Inh.-172” value is recorded as “more water soluble than Inh.-172”.

For `O=C(O)c1ccc(/C=C2\SC(=O)N(c3cccc(C(F)(F)F)c3)C2=O)cc1` [B8, 4-[[3-[3-(trifluoromethyl)phenyl]-2,4-dioxo-5-thiazolidinyli-dene]methyl]benzoic acid], the “Water solubility relative to Inh.-172” value is recorded as “more water soluble than Inh.-172”.

The record behind these values is US11035852B2, “Identifying drug candidates for treating polycystic kidney disease using organoids generated from primary cells” (UMC Utrecht Holding B.V., priority 2011, dated 2021).
